Values joined by “and” are separate entries in the source; they are usually repeats but may differ in a detail not shown here. Equal entries are not always repeated.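 1) Cells in 96-well plates. 2) Compound, 48 h, 5 concentrations. 3) Linear interpolation between surrounding doses. 4) Unreached endpoint = highest concentration. TGI: total growth inhibition.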
What was measured:
Test in all cases: NCI tumour cell line growth inhibition, 48 h
M19-MEL melanoma = tested on: M19-MEL melanoma
DMS 114 small cell lung = tested on: DMS 114 small cell lung
LXFL 529 NSCLC = tested on: LXFL 529 NSCLC
DLD-1 colon = tested on: DLD-1 colon
RXF-631 renal = tested on: RXF-631 renal
P388/ADR leukemia = tested on: P388/ADR leukemia
P388 leukemia = tested on: P388 leukemia
SN12K1 renal = tested on: SN12K1 renal

CCOC(OCC)C(CC)[Se]c1ccccc1 (stereo unspecified)
TGI (M19-MEL melanoma): > 100 µM
TGI (DMS 114 small cell lung): 8.89 µM
TGI (LXFL 529 NSCLC): > 100 µM
TGI (DLD-1 colon): > 100 µM
TGI (RXF-631 renal): > 100 µM

COc1ccc(C2=C(Cl)c3cc(OC)c(OC)cc3C2)cc1OC
TGI (M19-MEL melanoma): > 100 µM
TGI (DMS 114 small cell lung): > 100 µM
TGI (LXFL 529 NSCLC): > 100 µM
TGI (DLD-1 colon): > 100 µM

Cc1ccc(C#CS(=O)(=O)C(F)(F)F)cc1
TGI (M19-MEL melanoma): > 100 µM
TGI (DMS 114 small cell lung): > 100 µM
TGI (DLD-1 colon): > 100 µM
TGI (P388/ADR leukemia): > 100 µM
TGI (P388 leukemia): > 100 µM
TGI (SN12K1 renal): > 100 µM

Cc1ccc(NC(=O)/C(=N/NC(=O)C[N+](C)(C)C)c2nc3ccccc3[nH]c2=O)cc1
TGI (M19-MEL melanoma): > 100 µM
TGI (DMS 114 small cell lung): > 100 µM
TGI (LXFL 529 NSCLC): > 100 µM
TGI (DLD-1 colon): > 100 µM
TGI (RXF-631 renal): > 100 µM

Cn1cnc(SC2=C3C(=O)C=C4S[C@H]5C[C@]42c2c(c(O)c4c6c2=[N+]3CCC=6C=N4)N5)c1CC(N)C(=O)O (stereo partly specified)
TGI (M19-MEL melanoma): 21.5 µM
TGI (DMS 114 small cell lung): 6.11 µM
TGI (LXFL 529 NSCLC): 27.1 µM
TGI (DLD-1 colon): 31.4 µM

O=Cc1c(Br)[nH]c2ccccc12
TGI (M19-MEL melanoma): > 100 µM
TGI (DLD-1 colon): > 100 µM
TGI (P388/ADR leukemia): > 100 µM
TGI (P388 leukemia): > 100 µM
TGI (SN12K1 renal): > 100 µM

COc1ccc(CCCN2c3ccccc3Sc3ccccc32)cc1
TGI (DMS 114 small cell lung): > 100 µM
TGI (LXFL 529 NSCLC): > 100 µM
TGI (DLD-1 colon): > 100 µM

COc1cc(C(O)C(=O)c2cnc3cc([N+](=O)[O-])ccc3n2)ccc1O (stereo unspecified)
TGI (M19-MEL melanoma): > 100 µM
TGI (DMS 114 small cell lung): > 100 µM
TGI (LXFL 529 NSCLC): > 100 µM
TGI (DLD-1 colon): > 100 µM
TGI (RXF-631 renal): > 100 µM

O=C(NN1C(=O)C(Cl)C1c1ccccc1Cl)c1ccccc1O (stereo unspecified)
TGI (M19-MEL melanoma): > 100 µM
TGI (DMS 114 small cell lung): > 100 µM
TGI (LXFL 529 NSCLC): > 100 µM
TGI (DLD-1 colon): > 100 µM

O=C(Nc1ccc(Sc2ccc(N=Nc3c(O)c(S(=O)(=O)O)cc4cc(S(=O)(=O)O)ccc34)cc2)cc1)c1ccc(N=Nc2c(O)c(S(=O)(=O)O)cc3cc(S(=O)(=O)O)ccc23)cc1
TGI (M19-MEL melanoma): > 100 µM
TGI (DMS 114 small cell lung): 42.9 µM
TGI (LXFL 529 NSCLC): > 100 µM
TGI (DLD-1 colon): > 100 µM

Cn1nc2ccc3nccc(NCCNCCO)c3c2n1
TGI (M19-MEL melanoma): > 100 µM
TGI (LXFL 529 NSCLC): > 100 µM
TGI (DLD-1 colon): > 100 µM

COc1cc2c(c(OC)c1OC)-c1ccc(SC)c(=O)cc1[C@@H](NCc1cccc([N+](=O)[O-])c1)CC2
TGI (M19-MEL melanoma): > 100 µM
TGI (LXFL 529 NSCLC): > 100 µM
TGI (DLD-1 colon): > 100 µM

O=NN1C(c2ccccc2)CCCC1c1ccccc1 (stereo unspecified)
TGI (M19-MEL melanoma): > 100 µM
TGI (DMS 114 small cell lung): > 100 µM
TGI (DLD-1 colon): > 100 µM
TGI (P388/ADR leukemia): > 100 µM
TGI (P388 leukemia): 81.8 µM
TGI (SN12K1 renal): > 100 µM

CC1=NN(C(=O)Cc2ccccc2)C(=O)/C1=C\c1ccccc1O
TGI (M19-MEL melanoma): > 100 µM
TGI (DMS 114 small cell lung): > 100 µM
TGI (LXFL 529 NSCLC): > 100 µM
TGI (DLD-1 colon): > 100 µM

COc1cc2c(c(OC)c1OC)-c1ccc(SC)c(=O)cc1[C@@H](NC(=O)c1ccc([N+](=O)[O-])cc1)CC2
TGI (M19-MEL melanoma): 25 µM and > 100 µM
TGI (DMS 114 small cell lung): 0.89 µM
TGI (DLD-1 colon): 25 µM and > 100 µM
TGI (RXF-631 renal): > 100 µM

O=C(c1ccccc1O)c1cc(-c2ncc3c(=O)c4ccccc4oc3n2)c(-c2ccccc2O)[nH]c1=O
TGI (M19-MEL melanoma): > 68.2 µM
TGI (DMS 114 small cell lung): 80.4 µM
TGI (DLD-1 colon): > 61.5 µM
TGI (P388/ADR leukemia): 61 µM
TGI (P388 leukemia): 47.8 µM
TGI (SN12K1 renal): 35.1 µM

Source: PubChem BioAssay (NCI)
